The source of these data is article PMC8804135 (Neurotherapeutics, 2021).

Numbered stars: 1 amine (or outer) side, 2 acyl side, 3 side chain; on linkers, the order of the positions; unused ones are H or OH. Bridge positions count the residues as written; N and C are the ends. Square brackets hold non-standard residues; d marks the D form. Peptide text beside a SMILES is read from it. dAbu(3S-yl) = C[C@@H]([C@@H](N[*:1])C(=O)[*:2])[*:3]; pGlu = O=C1CC[C@@H](C(=O)O)N1

By half-life is commonly meant the time needed for the level to fall by half in the phase considered. Read a high half-life as slow loss. As usually defined, the fraction remaining is the share of the starting amount still present when the sample was taken. A lower fraction remaining goes with a greater loss.

The target of one series is T1, GAL2R (Homo sapiens, UniProt O43603).
T1 sequence (O43603 1-387): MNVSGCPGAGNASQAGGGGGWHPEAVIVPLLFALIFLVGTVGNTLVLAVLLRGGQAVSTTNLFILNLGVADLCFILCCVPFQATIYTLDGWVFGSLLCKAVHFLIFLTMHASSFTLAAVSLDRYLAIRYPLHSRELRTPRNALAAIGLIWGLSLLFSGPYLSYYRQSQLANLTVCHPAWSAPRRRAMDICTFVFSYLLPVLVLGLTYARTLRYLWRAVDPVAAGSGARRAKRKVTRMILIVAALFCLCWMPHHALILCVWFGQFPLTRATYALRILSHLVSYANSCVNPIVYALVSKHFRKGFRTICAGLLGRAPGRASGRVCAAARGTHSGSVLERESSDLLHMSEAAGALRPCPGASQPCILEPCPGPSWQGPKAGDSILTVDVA
The experiment in a line: PathHunter eXpress β-arrestin recruitment assay, GAL2R. Type of series: cell-based. On the set-up: expressed in transfected cells. To be noted: Table 3; CHO-K1 cells co-expressing GAL2R and β-arrestin 2; 10 µM to 5 nM; (average) ratio, (n) in cell = number of assays; NA = ratio above 1000. The protocol: (§1) To evaluate the ability of lanthipeptides to recruit ß-arrestins via GAL1R or via GAL2R, we used the PathHunter® eXpress GAL1R, CHO-K1, β-arrestin GPCR Assay and the PathHunter® eXpress GAL2R, CHO-K1, β-arrestin, GPCR Assay from Eurofins-DiscoverX. The assays were performed according to the manufacturer’s instructions. Briefly, for one assay, CHO-K1 cells co-expressing GAL1R or GAL2R and β-arrestin (isoform 2) were diluted in AssayComplete™ Cell Plating Reagent, and 100 µl was seeded into each well of a 96-well plate. The plate was incubated at 37 °C, 5% CO2 in a humidified incubator. A serial 3 × dilution of the lanthipeptides in water was made (10 µM to 5 nM). After 48 h of incubation, 10 µl of the serial dilutions was applied to the cells in duplicate. The agonists were incubated for 90 min at 37 °C. Next, 55 µL of Working Detection Solution was added, and after 1 h of incubation at room temperature in the dark, the chemiluminescent signal was read with a Synergy HT Biotek reader.
(In general: Arrestin recruitment assays detect the binding of arrestin to an activated receptor.)

Series [1] deals with T2, GAL1R (Homo sapiens, UniProt P47211).
T2 sequence (P47211 1-349): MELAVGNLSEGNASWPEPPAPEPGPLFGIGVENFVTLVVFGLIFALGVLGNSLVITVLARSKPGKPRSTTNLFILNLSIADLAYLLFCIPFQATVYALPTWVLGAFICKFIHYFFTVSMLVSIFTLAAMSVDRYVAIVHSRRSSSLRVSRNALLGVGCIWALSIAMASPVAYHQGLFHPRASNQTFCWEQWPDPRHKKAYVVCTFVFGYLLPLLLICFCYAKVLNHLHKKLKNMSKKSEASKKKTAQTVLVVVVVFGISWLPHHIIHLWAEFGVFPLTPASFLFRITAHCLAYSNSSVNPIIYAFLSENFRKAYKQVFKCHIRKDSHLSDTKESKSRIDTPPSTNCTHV
The series can be described thus: Label-free dynamic mass redistribution assay, SY5Y-R1 cells. Type of series: cell-based. Also on record: expressed in transfected cells. The settings on record: GAL1R-expressing SH-SY5Y cells; 1.6 nM to 5 µM. On the procedure: SH-SY5Y cells stably expressing low levels of either human GAL1R (SY5Y-R1) or GAL2R (SY5Y-R2) and HEK293 cells expressing human GAL3R (HEK-R3) were seeded in EnSpire LFC-[…] well plates (Perkin Elmer) at a concentration of 12,000 cells per well and cultured overnight at 37 °C and 5% CO2. The medium was aspired, and the cells were washed four times with Hank’s balanced salt solution (HBSS) (+ calcium, + magnesium) supplemented with HEPES (20 mM), and the final volume was adjusted to 30 µl per well. The plate was allowed to equilibrate to assay temperature for 1 h in the EnSpire multimode reader (Perkin Elmer). Galanin-(1–30) (GL Biochem) was dissolved and diluted in water. […] A baseline read was first generated by taking 4 measurements before ligands were added. The plate was measured between 30 and 70 repeats, and each treatment was performed in triplicate. […] EC50 values were calculated using Prism 8.2.0 (GraphPad Software Inc.). The values are provided as means of all independent experiments.

Series [2] has as its target T2, GAL1R. The experiment in a line: cAMP Hunter eXpress GAL1R CHO-K1 GPCR assay (inhibition of forskolin-induced cAMP). Type of series: cell-based. Also on record: expressed in transfected cells. The settings on record: Table 3; CHO-K1 cells expressing GAL1R; 20 µM forskolin; 10 µM to 5 nM; (average) ratio, (n) in cell = number of assays; NA = ratio above 1000. The protocol:
To evaluate the ability of lanthipeptides to […] via GAL1R signaling, we used the cAMP Hunter™ eXpress GAL1R CHO-K1 GPCR Assay from Eurofins-DiscoverX. The assay was performed according to the manufacturer’s instructions. Briefly, for one assay, CHO-K1 cells expressing GAL1R were diluted in AssayComplete™ Cell Plating 2 Reagent, and 100 µl was seeded into each well of a 96-well plate. The plate was incubated at 37 °C, 5% CO2 in a humidified incubator. After 24 h of incubation, the media was aspirated, and 45 µl cell assay buffer/antibody mixture was added to all wells. […] Fifteen µl of the serial dilutions was applied in duplicates to the cells. The concentration of forskolin in the assay was 20 µM. The agonists were incubated for 30 min at 37 °C. Next, 15 µL Antibody Solution and 60 μL cAMP Working Detection Solution were added, and the plate was incubated for 1 h in the dark at room temperature. Finally, 60 μL cAMP Solution A was added and, after 3 h of incubation in the dark at room temperature, the chemiluminescent signal was read with a Synergy HT Biotek reader.

The target of series [3] is T2, GAL1R. The series can be described thus: PathHunter eXpress β-arrestin recruitment assay, GAL1R. Type of series: cell-based. Also on record: expressed in transfected cells. To be noted: Table 3; CHO-K1 cells co-expressing GAL1R and β-arrestin 2; 10 µM to 5 nM; (average) ratio, (n) in cell = number of assays; NA = ratio above 1000. On the procedure: as §1
Series [4] in a line: In vitro stability in rat serum. Type of series: in vitro ADME. The settings on record: rat, serum, pH 7.4. On the procedure: At various time points (0, 30, 90, 270, and 1410 min), 180 µl of samples were quenched with 10 µl 10% TFA and 20 µl 100% ACN. Samples were centrifuged and kept on ice. The amount of full-length peptides in the serum was analyzed using a C12 column (C12 RP 250 × 4.60 mm column, Phenomenex) on a JASCO HPLC system and applying a gradient of 10–90% ACN in 0.1% TFA for 45 min. Peptides were detected at 280 nm. A280 areas in chromatograms of the corresponding GAL-(1–15) and M89b full-length peptide peaks were used to determine the amount of peptide left after incubation with 5% rat serum at the different time points. Peptide peaks were determined using JASCO-Borwin Chromatography software (v1.50).

For the compound `CC(C)C[C@H](NC(=O)[C@H](CC(C)C)NC(=O)[C@H](Cc1ccc(O)cc1)NC(=O)CNC(=O)[C@H](C)NC(=O)[C@H](C)NC(=O)[C@H](CC(N)=O)NC(=O)[C@H](CC(C)C)NC(=O)[C@H](CC(N)=O)NC(=O)[C@H](Cc1c[nH]c2ccccc12)NC(=O)[C@@H]1CCC(=O)N1)C(=O)N[C@@H](C)C(=O)N[C@H]1C(=O)N[C@@H](Cc2c[nH]cn2)C(=O)N[C@@H](C)C(=O)N[C@H](C(=O)NCC(=O)O)CS[C@H]1C` [Variant M89b, G1pE-T3N-S6A-G12A-methyllanthionine[13–16]-galanin-(1–17)] ([pGlu]WNLNAAGYLLA[dAbu(3S-yl)]HACG-OH; thioether 13-16; C-terminus assumed), the “EC50 ratios to Gal-(1-15), GAL2R ß-Arrestin” value at GAL2R is given as 1.7 (3). At GAL1R [1], the “Stimulation of GAL1R, DMR in SY5YR1 cells” value is “stimulate GAL2R only, not GAL1R”. Further, the “EC50 ratios to Gal-(1-15), GAL1R cAMP” value on GAL1R [2] is given as “NA (3) (NA is not active; ratios above 1000 were considered to be not active)”. Also, the “EC50 ratios to Gal-(1-15), GAL1R ß-Arrestin” value on GAL1R [3] was “NA (3) (NA is not active; ratios above 1000 were considered to be not active)”. Moreover, in series [4], the half-life at 10 µM was over 24 h; the metabolised at 23.5 h, 10 µM was 40%; the fraction remaining at 23.5 h, 10 µM is about 60%.
